Like-named read-outs stand apart in the source and are kept apart here.
How the values were obtained:
ColH = conditions: literature inhibitor; cited from earlier work
[1] = target: peptidase domain of ColH (ColH-PD) (Hathewaya histolytica, UniProt Q46085); experiment: biochemical; set-up: species or system Clostridium histolyticum; conditions: for inhibition at 1 µM: read-out: ColH-PD % inhibition @ 1 μM
LasB [2] = target: T1, LasB (Pseudomonas aeruginosa, UniProt Q02RJ6); experiment: biochemical; conditions: LasB IC50, FRET-based assay
LasB [3] = target: T1, LasB
[4] = tested on: P. aeruginosa strain PA14; experiment: Bacterial growth inhibition assay (MIC) P. aeruginosa; format: cell-based, Pseudomonas aeruginosa
in vitro [5] = conditions: human, HepG2 cells (hepatocellular carcinoma)
in vitro [6] = conditions: human, HEK293 cells (embryonal kidney)
in vitro [7] = conditions: human, A549 cells (lung carcinoma)
[8] = target: collagenase unit of ColG (ColG-CU) (Hathewaya histolytica, UniProt Q9X721); experiment: biochemical; set-up: species or system C. histolyticum; conditions: read-out: ColG-CU % inhibition @ 100 μM
[9] = target: peptidase domain of ColT (ColT-PD) (Clostridium tetani, UniProt Q899Y1); experiment: biochemical; set-up: species or system C. tetani; conditions: read-out: ColT-PD % inhibition @ 100 μM
[10] = target: T2, collagenase unit of ColQ1 (ColQ1-CU) (Bacillus cereus, UniProt B9J3S4); experiment: biochemical; set-up: species or system B. cereus strain Q1; conditions: read-out: ColQ1-CU % inhibition @ 100 μM
T2 construct: the collagenase unit of ColQ1 (ColQ1-CU) from B. cereus strain Q1
T2 sequence (B9J3S4 94-765 limits assumed): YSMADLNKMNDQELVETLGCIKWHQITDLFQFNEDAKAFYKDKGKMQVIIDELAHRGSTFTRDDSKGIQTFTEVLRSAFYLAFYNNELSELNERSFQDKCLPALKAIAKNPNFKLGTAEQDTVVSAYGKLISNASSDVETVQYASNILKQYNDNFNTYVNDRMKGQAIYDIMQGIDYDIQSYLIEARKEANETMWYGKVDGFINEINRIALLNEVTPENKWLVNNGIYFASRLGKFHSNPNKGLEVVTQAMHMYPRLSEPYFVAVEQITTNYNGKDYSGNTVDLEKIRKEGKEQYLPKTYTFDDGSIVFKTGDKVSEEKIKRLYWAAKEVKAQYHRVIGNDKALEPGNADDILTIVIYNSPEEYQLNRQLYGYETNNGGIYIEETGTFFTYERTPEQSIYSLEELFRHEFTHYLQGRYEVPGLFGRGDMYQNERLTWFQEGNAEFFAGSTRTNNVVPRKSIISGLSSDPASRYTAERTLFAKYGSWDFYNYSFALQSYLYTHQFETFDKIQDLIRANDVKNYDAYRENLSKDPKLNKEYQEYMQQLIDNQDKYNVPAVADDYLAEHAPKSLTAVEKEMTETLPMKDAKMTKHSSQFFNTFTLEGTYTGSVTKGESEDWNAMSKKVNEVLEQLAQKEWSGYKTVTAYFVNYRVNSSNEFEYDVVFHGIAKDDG

T1 sequence (Q02RJ6 198-498): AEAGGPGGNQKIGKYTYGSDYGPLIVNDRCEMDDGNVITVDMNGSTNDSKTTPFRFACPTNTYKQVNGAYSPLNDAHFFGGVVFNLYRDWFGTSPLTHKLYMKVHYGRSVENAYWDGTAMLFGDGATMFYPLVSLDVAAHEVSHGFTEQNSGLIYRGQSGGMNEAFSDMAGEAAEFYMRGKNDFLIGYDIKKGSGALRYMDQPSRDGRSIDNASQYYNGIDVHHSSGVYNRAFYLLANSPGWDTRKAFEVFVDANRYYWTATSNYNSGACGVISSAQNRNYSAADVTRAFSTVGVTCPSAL
Sequence of peptidase domain of ColH (ColH-PD) (Q46085 331-721 limits assumed): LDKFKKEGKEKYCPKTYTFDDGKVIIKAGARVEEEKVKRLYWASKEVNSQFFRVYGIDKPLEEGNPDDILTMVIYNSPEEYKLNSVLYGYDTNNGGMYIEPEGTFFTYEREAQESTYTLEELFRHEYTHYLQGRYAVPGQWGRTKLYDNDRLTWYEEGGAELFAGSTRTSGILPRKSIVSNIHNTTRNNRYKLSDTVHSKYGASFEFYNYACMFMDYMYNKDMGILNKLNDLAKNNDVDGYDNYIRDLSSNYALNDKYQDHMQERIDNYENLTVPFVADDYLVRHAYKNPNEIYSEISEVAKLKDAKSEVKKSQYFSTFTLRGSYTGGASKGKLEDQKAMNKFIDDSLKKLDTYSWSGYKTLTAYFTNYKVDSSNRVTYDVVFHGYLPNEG
Sequence of peptidase domain of ColT (ColT-PD) (Q899Y1 340-731 limits assumed): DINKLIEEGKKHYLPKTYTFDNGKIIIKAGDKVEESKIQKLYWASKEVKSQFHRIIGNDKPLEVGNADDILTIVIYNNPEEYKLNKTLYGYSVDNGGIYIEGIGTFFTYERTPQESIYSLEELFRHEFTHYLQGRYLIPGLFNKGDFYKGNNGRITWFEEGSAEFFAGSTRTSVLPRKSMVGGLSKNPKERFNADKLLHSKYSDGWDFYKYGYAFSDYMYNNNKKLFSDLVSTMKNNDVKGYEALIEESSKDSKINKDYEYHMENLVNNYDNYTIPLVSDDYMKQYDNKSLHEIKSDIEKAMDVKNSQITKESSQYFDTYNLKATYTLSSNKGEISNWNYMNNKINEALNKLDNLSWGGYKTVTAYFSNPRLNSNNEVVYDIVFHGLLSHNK
Sequence of collagenase unit of ColG (ColG-CU) (Q9X721 111-786): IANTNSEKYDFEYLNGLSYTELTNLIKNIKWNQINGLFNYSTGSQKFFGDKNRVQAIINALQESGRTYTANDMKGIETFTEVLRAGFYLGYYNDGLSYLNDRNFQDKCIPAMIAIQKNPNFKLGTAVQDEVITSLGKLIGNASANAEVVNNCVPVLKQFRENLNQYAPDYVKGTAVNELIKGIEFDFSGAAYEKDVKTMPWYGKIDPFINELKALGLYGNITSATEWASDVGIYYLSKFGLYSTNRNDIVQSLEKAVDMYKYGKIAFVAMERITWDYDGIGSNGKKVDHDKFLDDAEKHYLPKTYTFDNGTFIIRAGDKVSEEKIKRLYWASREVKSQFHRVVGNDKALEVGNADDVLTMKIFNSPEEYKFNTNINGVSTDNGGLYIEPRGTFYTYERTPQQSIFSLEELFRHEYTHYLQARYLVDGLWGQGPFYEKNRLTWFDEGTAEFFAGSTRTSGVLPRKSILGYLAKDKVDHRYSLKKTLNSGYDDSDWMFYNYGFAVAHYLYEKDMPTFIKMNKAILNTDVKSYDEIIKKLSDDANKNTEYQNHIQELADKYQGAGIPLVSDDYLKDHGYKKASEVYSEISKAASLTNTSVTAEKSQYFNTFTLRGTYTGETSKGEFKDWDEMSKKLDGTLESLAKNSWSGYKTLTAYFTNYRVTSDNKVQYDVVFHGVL

Structure (SMILES)	inhibition at 1 µM [1]	IC50 (LasB [2])	also measured
CC(C(=O)NO)N(Cc1ccccc1[N+](=O)[O-])S(=O)(=O)c1c(F)c(F)c(F)c(F)c1F (centres unmarked) [Compound 3]	–	–	Ki (ColH): 0.005 µM
COc1ccc(N2C(=O)CC(CSC(C)=O)C2=O)cc1 (centres unmarked) [Compound 43]	4 ± 6%	> 200 µM	–
CC(NC(=O)C(Cc1ccccc1)NC(=O)NS(=O)(=O)c1ccc(F)cc1)C(=O)Nc1nnc(S)s1 (centres unmarked) [Compound 4]	–	–	Ki (ColH): 0.2 µM
O=C1CC(S)C(=O)N1c1cccc([N+](=O)[O-])c1 (centres unmarked) [Compound 24]	4 ± 4%	22.2 ± 0.4 µM	–
O=C1CC(S)C(=O)N1c1cccc(-c2ccccc2)c1 (centres unmarked) [Compound 26]	7 ± 4%	27.6 ± 4 µM	fold more active on LasB than compound 7 (LasB [3]): 1.6 fold
COc1ccc(N2C(=O)CC(SC(C)=O)C2=O)cc1 (centres unmarked) [Compound 28]	24 ± 2%	> 200 µM	–
COc1ccc(N2C(=O)CC(S)C2=O)c(OC)c1 (centres unmarked) [Compound 21]	2 ± 13%	45 ± 0.8 µM	–
O=C1CC(S)C(=O)N1c1ccccc1 (centres unmarked) [Compound 7]	8 ± 2%	44.2 ± 2.3 µM	–
CC(=O)SCC1CC(=O)N(c2ccccc2)C1=O (centres unmarked) [Compound 40]	-15 ± 5%	> 200 µM	–
CC(=O)SC1CC(=O)N(c2ccc(OC(F)(F)F)c(Cl)c2)C1=O (centres unmarked) [Compound 30]	-11 ± 2%	> 200 µM	–
O=C1CC(S)C(=O)N1c1c(Cl)cccc1Cl (centres unmarked) [Compound 14]	8 ± 3%	16 ± 3.7 µM	–
CC(=O)SCC1CC(=O)N(c2ccc(Cl)c(Cl)c2)C1=O (centres unmarked) [Compound 41]	-1 ± 2%	> 200 µM	–
CC(=O)SC1CC(=O)N(c2ccc(Cl)c(Cl)c2)C1=O (centres unmarked) [Compound 29]	-1 ± 7%	> 200 µM	–
O=C1CC(S)C(=O)N1c1ccc(Cl)cc1 (centres unmarked) [Compound 12]	33%	16.5 ± 0.8 µM	–
O=C1CC(S)C(=O)N1c1ccc(-c2ccccc2)cc1 (centres unmarked) [Compound 27]	5 ± 2%	44.6 ± 1.1 µM	–
CC(=O)SCC1CC(=O)N(c2ccc(C(C)=O)cc2)C1=O (centres unmarked) [Compound 42]	2 ± 5%	> 200 µM	–

Structure (SMILES)	inhibition at 1 µM [1]	IC50 (LasB [2])	also measured
O=C1CC(S)C(=O)N1c1ccc(OC(F)(F)F)c(Cl)c1 (centres unmarked) [Compound 23]	18 ± 12%	55.2 ± 4.4 µM	–
O=C1CC(CS)C(=O)N1c1ccc(F)c(F)c1 (centres unmarked) [Compound 51]	2 ± 1%	10.1 ± 1.4 µM	MIC [4]: >100 µM; MIC ([4]; Pseudomonas aeruginosa): > 100 µM
O=C1CC(CS)C(=O)N1c1ccc(Cl)c(Cl)c1 (centres unmarked) [Compound 50]	2 ± 3%	5.4 ± 0.7 µM	MIC [4]: >100 µM; MIC ([4]; Pseudomonas aeruginosa): > 100 µM
CC(=O)c1ccc(N2C(=O)CC(CS)C2=O)cc1 (centres unmarked) [Compound 52]	8 ± 3%	> 200 µM	–
CC(=O)c1ccc(NC(=O)CS)cc1 [Compound 6, reference compound]	–	–	IC50 (in vitro [5]): > 100 µM; IC50 (in vitro [6]): 100 µM; IC50 (in vitro [7]): > 100 µM
COc1ccccc1N1C(=O)CC(S)C1=O (centres unmarked) [Compound 18]	0%	28.9 ± 1.6 µM	–
Cc1ccc(Cl)cc1N1C(=O)CC(S)C1=O (centres unmarked) [Compound 16]	6 ± 1%	15 ± 0.6 µM	–
COc1cccc(N2C(=O)CC(S)C2=O)c1 (centres unmarked) [Compound 19]	-3 ± 9%	40.2 ± 1.4 µM	–
O=C1CC(S)C(=O)N1c1ccccc1Cl (centres unmarked) [Compound 10]	8 ± 1%	8.5 ± 0.4 µM	–
O=C1CC(S)C(=O)N1c1cccc(Cl)c1 (centres unmarked) [Compound 11]	0%	8.1 ± 0.5 µM	–
Cc1ccc(Cl)c(C)c1N1C(=O)CC(S)C1=O (centres unmarked) [Compound 17]	6 ± 5%	30.5 ± 5.4 µM	–
COc1ccc(N2C(=O)CC(S)C2=O)cc1 (centres unmarked) [Compound 20]	74%	112 ± 8.9 µM	IC50 [1]: 0.32 ± 0.05 µM; inhibition at 100 µM ([1]; read-out: ColH-PD % inhibition @ 100 μM): 95 ± 1%; inhibition at 100 µM [8]: 85 ± 3%; inhibition at 100 µM [9]: 89 ± 4%; inhibition at 100 µM [10]: 99 ± 1%
COc1ccc(N2C(=O)CC(S)C2=O)cc1OC (centres unmarked) [Compound 22]	3 ± 11%	160 ± 10.1 µM	loss in LasB activity compared to 13 (LasB [3]; ratio of IC50 values): 47 fold
Cc1ccc(N2C(=O)CC(S)C2=O)cc1C (centres unmarked) [Compound 9]	7 ± 2%	29.4 ± 0.9 µM	difference in LasB activity between 9 and 22 (LasB [3]; ratio of IC50 values, 9 more active): 5 fold
Cc1ccc(N2C(=O)CC(S)C2=O)cc1 (centres unmarked) [Compound 8]	34%	50.6 ± 1.6 µM	–
O=C1CC(S)C(=O)N1c1ccc(F)c(F)c1 (centres unmarked) [Compound 15]	2 ± 2%	3.5 ± 0.2 µM	MIC [4]: >100 µM; MIC ([4]; Pseudomonas aeruginosa): > 100 µM
